# Results: article PMC5433425 (PeerJ, 2017)
# Several values for one entry are separate records, joined by “and”; a condition that tells them apart may be missing. Equal values may be shown once.
# Columns and labels:
# E. coli AG100 = test: Membrane permeability assay (Live/Dead BacLight); conditions: for BacLight Live/Dead fluorescence 485/20,528/20 / BacLight Live/Dead fluorescence 485/20,590/35: raw well reading
# E. coli AG100tet = test: EtBr efflux by real-time fluorometry; conditions: 80 µM
structure (smiles),measurement,setting,value
"CCCOc1ccc(-c2cc(OCCN3CCNCC3)c3ccccc3n2)cc1 [PQQ4R, 4-(2-(piperazin-1-yl)ethoxy)-2-(4-propoxyphenyl) quinolone]","BacLight Live/Dead fluorescence 485/20,528/20",E. coli AG100; 80 uM,153 and 118
same,"BacLight Live/Dead fluorescence 485/20,590/35",E. coli AG100; 80 uM,38 and 30
same,"BacLight Live/Dead fluorescence 485/20,528/20",E. coli AG100; 160 uM,278 and 253
same,"BacLight Live/Dead fluorescence 485/20,590/35",E. coli AG100; 160 uM,85 and 82
same,"BacLight Live/Dead fluorescence 485/20,528/20",E. coli AG100; 320 uM,277 and 252
same,"BacLight Live/Dead fluorescence 485/20,590/35",E. coli AG100; 320 uM,87 and 78
same,"BacLight Live/Dead fluorescence 485/20,528/20",E. coli AG100; 640 uM,160 and 178
same,"BacLight Live/Dead fluorescence 485/20,590/35",E. coli AG100; 640 uM,79 and 82
same,membrane permeability increase / membrane permeation,"E. coli AG100; AG100, 80 µM",4%
same,effect on cell membrane integrity,"E. coli AG100; AG100, 80 µM (≈1/8 MIC), 1 h",did not alter
same,membrane permeation,"E. coli AG100; AG100, 160 μM (1/4 MIC)",22%
same,membrane permeation,"E. coli AG100; AG100, 320 μM (1/2 MIC)",28%
same,membrane permeation,"E. coli AG100; AG100, 640 μM (MIC)",50%
same,reduction of membrane integrity,"E. coli AG100; AG100, half MIC, 1 h",28%
same,"Fluorescence raw data, Channel Cycling A.530/585hp","E. coli AG100tet; cycle 1, + glucose",3.509
same,"Fluorescence raw data, Channel Cycling A.530/585hp","E. coli AG100tet; cycle 1, without glucose",3.29
same,"Fluorescence raw data, Channel Cycling A.530/585hp","E. coli AG100tet; cycle 2, + glucose",3.253
same,"Fluorescence raw data, Channel Cycling A.530/585hp","E. coli AG100tet; cycle 2, without glucose",3.046
same,"Fluorescence raw data, Channel Cycling A.530/585hp","E. coli AG100tet; cycle 3, + glucose",3.181
same,"Fluorescence raw data, Channel Cycling A.530/585hp","E. coli AG100tet; cycle 3, without glucose",3.057
same,"Fluorescence raw data, Channel Cycling A.530/585hp","E. coli AG100tet; cycle 4, without glucose",3.005
same,"Fluorescence raw data, Channel Cycling A.530/585hp","E. coli AG100tet; cycle 5, without glucose",2.971
same,"Fluorescence raw data, Channel Cycling A.530/585hp","E. coli AG100tet; cycle 6, without glucose",3.106
same,"Fluorescence raw data, Channel Cycling A.530/585hp","E. coli AG100tet; cycle 7, without glucose",3.154
same,"Fluorescence raw data, Channel Cycling A.530/585hp","E. coli AG100tet; cycle 8, without glucose",3.202
same,"Fluorescence raw data, Channel Cycling A.530/585hp","E. coli AG100tet; cycle 9, + glucose",3.419
same,"Fluorescence raw data, Channel Cycling A.530/585hp","E. coli AG100tet; cycle 9, without glucose",3.159
same,"Fluorescence raw data, Channel Cycling A.530/585hp","E. coli AG100tet; cycle 10, + glucose",3.524
same,"Fluorescence raw data, Channel Cycling A.530/585hp","E. coli AG100tet; cycle 10, without glucose",3.043
same,"Fluorescence raw data, Channel Cycling A.530/585hp","E. coli AG100tet; cycle 11, + glucose",3.644
same,"Fluorescence raw data, Channel Cycling A.530/585hp","E. coli AG100tet; cycle 11, without glucose",3.142
same,"Fluorescence raw data, Channel Cycling A.530/585hp","E. coli AG100tet; cycle 12, + glucose",3.857
same,"Fluorescence raw data, Channel Cycling A.530/585hp","E. coli AG100tet; cycle 12, without glucose",3.158
same,"Fluorescence raw data, Channel Cycling A.530/585hp","E. coli AG100tet; cycle 13, + glucose",3.873
same,"Fluorescence raw data, Channel Cycling A.530/585hp","E. coli AG100tet; cycle 13, without glucose",3.143
same,"Fluorescence raw data, Channel Cycling A.530/585hp","E. coli AG100tet; cycle 14, + glucose",3.954
same,"Fluorescence raw data, Channel Cycling A.530/585hp","E. coli AG100tet; cycle 14, without glucose",3.212
same,"Fluorescence raw data, Channel Cycling A.530/585hp","E. coli AG100tet; cycle 15, + glucose",4.044
same,"Fluorescence raw data, Channel Cycling A.530/585hp","E. coli AG100tet; cycle 15, without glucose",3.129
same,"Fluorescence raw data, Channel Cycling A.530/585hp","E. coli AG100tet; cycle 16, + glucose",4.17
same,"Fluorescence raw data, Channel Cycling A.530/585hp","E. coli AG100tet; cycle 16, without glucose",3.186
same,"Fluorescence raw data, Channel Cycling A.530/585hp","E. coli AG100tet; cycle 17, + glucose",4.316
same,"Fluorescence raw data, Channel Cycling A.530/585hp","E. coli AG100tet; cycle 17, without glucose",3.1931
same,"Fluorescence raw data, Channel Cycling A.530/585hp","E. coli AG100tet; cycle 18, + glucose",4.457
same,"Fluorescence raw data, Channel Cycling A.530/585hp","E. coli AG100tet; cycle 18, without glucose",3.175
same,"Fluorescence raw data, Channel Cycling A.530/585hp","E. coli AG100tet; cycle 19, + glucose",4.5
same,"Fluorescence raw data, Channel Cycling A.530/585hp","E. coli AG100tet; cycle 19, without glucose",3.177
same,"Fluorescence raw data, Channel Cycling A.530/585hp","E. coli AG100tet; cycle 20, + glucose",4.55
same,"Fluorescence raw data, Channel Cycling A.530/585hp","E. coli AG100tet; cycle 20, without glucose",3.2463
same,"Fluorescence raw data, Channel Cycling A.530/585hp","E. coli AG100tet; cycle 21, + glucose",4.567
same,"Fluorescence raw data, Channel Cycling A.530/585hp","E. coli AG100tet; cycle 21, without glucose",3.257
same,"Fluorescence raw data, Channel Cycling A.530/585hp","E. coli AG100tet; cycle 22, + glucose",4.692
same,"Fluorescence raw data, Channel Cycling A.530/585hp","E. coli AG100tet; cycle 22, without glucose",3.214
same,"Fluorescence raw data, Channel Cycling A.530/585hp","E. coli AG100tet; cycle 23, + glucose",4.73
same,"Fluorescence raw data, Channel Cycling A.530/585hp","E. coli AG100tet; cycle 23, without glucose",3.261
same,"Fluorescence raw data, Channel Cycling A.530/585hp","E. coli AG100tet; cycle 24, + glucose",4.823
same,"Fluorescence raw data, Channel Cycling A.530/585hp","E. coli AG100tet; cycle 24, without glucose",3.277
same,"Fluorescence raw data, Channel Cycling A.530/585hp","E. coli AG100tet; cycle 25, + glucose",4.864
same,"Fluorescence raw data, Channel Cycling A.530/585hp","E. coli AG100tet; cycle 25, without glucose",3.306
same,"Fluorescence raw data, Channel Cycling A.530/585hp","E. coli AG100tet; cycle 26, + glucose",4.922
same,"Fluorescence raw data, Channel Cycling A.530/585hp","E. coli AG100tet; cycle 26, without glucose",3.351
